Assay: xn = mol fraction of the nth substance listed
Conditions: Liquid, Vibrating tube method

CCCCCCCCCCCCCCCC [hexadecane] + CCCCCC
mass density [kg/m3]
Conditions | 100 kPa | 1000 kPa | 5000 kPa | 10000 kPa | 20000 kPa | 30000 kPa | 40000 kPa | 50000 kPa | 60000 kPa
298.15 K, x2 = 0.1985 | 759.7 | 760.3 | 763 | 766.3 | 772.3 | 777.9 | 783.2 | 788.1 | –
298.15 K, x2 = 0.4136 | 744.4 | 745.1 | 748 | 751.4 | 757.8 | 763.7 | 769.2 | 774.4 | 779.5
298.15 K, x2 = 0.5007 | 736.7 | 737.5 | 740.4 | 744 | 750.4 | 756.5 | 762.2 | 767.5 | 772.6
298.15 K, x2 = 0.5966 | 726.9 | 727.5 | 730.6 | 734.3 | 741.1 | 747.4 | 753.2 | 758.6 | 763.9
298.15 K, x2 = 0.7928 | 700.2 | 700.8 | 704.3 | 708.5 | 715.9 | 722.7 | 729 | 734.8 | 740.4
323.15 K, x2 = 0.1985 | 742.3 | 743.2 | 746.2 | 749.9 | 756.7 | 763 | 768.7 | 774.2 | 779.4
323.15 K, x2 = 0.4136 | 726.2 | 727.1 | 730.4 | 734.4 | 741.6 | 748.3 | 754.3 | 760.1 | 765.4
323.15 K, x2 = 0.5007 | 717.7 | 719.1 | 722.6 | 726.7 | 734.1 | 741 | 747.2 | 753 | 758.5
323.15 K, x2 = 0.5966 | 707.8 | 708.9 | 712.4 | 716.7 | 724.4 | 731.5 | 737.9 | 744 | 749.7
323.15 K, x2 = 0.7928 | 679.1 | 680.6 | 684.7 | 689.6 | 698.3 | 706.2 | 713.2 | 719.7 | 725.7
348.15 K, x2 = 0.1985 | 724.4 | 725.2 | 728.7 | 732.9 | 740.6 | 747.6 | 754 | 760 | –
348.15 K, x2 = 0.4136 | 708 | 709 | 712.8 | 717.3 | 725.6 | 733 | 739.7 | 746 | –
348.15 K, x2 = 0.5007 | 698.3 | 700.1 | 704 | 708.6 | 717.2 | 724.9 | 731.8 | 738.2 | –
348.15 K, x2 = 0.5966 | 687.2 | 689.3 | 693.5 | 698.5 | 707.5 | 715.4 | 722.6 | 729.3 | –
348.15 K, x2 = 0.7928 | 658.2 | 659.5 | 664.5 | 670.2 | 680.3 | 689.2 | 697.1 | – | –
